Data: patent US20230172894A1, “COMBINATION TREATMENT FOR FUMARATE-RELATED DISEASES” (IMCYSE SA, priority 2020, published 2023)
Where a name gives a salt, the structure may show the parent alone. Read-outs that look alike come from different tables or passages of the source.

Legend:
[1] = tested on: experimental auto-immune encephalomyelitis (EAE) development in mice; test: Example 3: serum neurofilament light (NF-L) levels in EAE mice; format: in vivo, female C57BL/6 mice; conditions: Day 28 serum, vs negative control
Protocol: (§1) On Day 28, blood was collected from all mice into gel clot activator tubes and allowed to clot at room temperature for ˜30 minutes. Blood is then centrifuged at ˜10000 g for 5 minutes. Serum was transferred into Eppendorf tubes and stored at −80° C. until shipment to Quanterix™. Serum Neurofilament light (NF-L) protein levels were quantified using Simoa® NF-light Advantage kit as described in example 1.

[2] = tested on: experimental auto-immune encephalomyelitis (EAE) development in mice; conditions: Example 4; for mice died in group: 16 mice per group; for disease onset: peptide 30 μg/Alum s.c. days 4, 9, 14, 19, BG-12 100 mg/kg p.o. BID days 0 to 27; for disease onset / AUC (area under the curve) of EAE scores / MMS (mean maximal score) / end score (clinical EAE score 0-5): vs negative control, combinations also vs peptides only or BG-12 only
Description: Example 4: Effect of the therapeutic administration of an immunogenic peptide comprising a human MOG201-212 MHCII T cell epitope linked to a KHCPYC oxidoreductase motif in combination with dimethyl fumarate (BG-12, […]™) on experimental auto-immune encephalomyelitis (EAE) development in mice.
The study used a total of 96 female C57BL/6 mice (Taconic Biosciences, 9 weeks old on Day 0). Mice were acclimated for 7 days prior to the first injection. Mice were assigned to groups in a balanced manner to achieve similar average weight across the groups at the start of the study.
Treatment 1 was administered once on each of the days indicated in Table 5, s.c., at a volume of 0.05 mL/site, each mouse receiving injection at two sites, for a total of 0.1 mL/mouse/dosing day. IMCY-0189 or P4 peptide total dose was 30 μg per administration.
(§2) BG-12 was dosed at 100 mg/kg.
(§3) All dosing were done at the same time (+/−1 hour) each dosing day. For the BID groups there were no less than 10 and no more than 14 hours between doses.
Lyophilized immunogenic peptide P4 with the sequence […] (SEQ ID NO: 176), comprising an oxidoreductase motif KHCPYC (SEQ ID NO: 77), a linker VRY, a human Myelin Oligodendrocyte Glycoprotein (MOG201-212) MHCII T cell epitope […] (SEQ ID NO: 165) and a flanking sequence TLFKK (SEQ ID NO: 267) (Smart Bioscience) was solubilized immediately before use. Lyophilized P4 was thawed at room temperature for 10 minutes, resuspended in Na Acetate buffer 50 mM NaCl 0.9% pH 5.4 and incubated at room temperature for 10 minutes. Reconstituted peptide was then mixed with Imject™ Alum Adjuvant before injection.
Treatment 2 was prepared as described in example 2.
EAE induction, scoring and statistical analysis were performed as described in example 2.
(§4) EAE development was evaluated by comparing clinical EAE readouts for all groups to the negative control (Saline/Vehicle) group.

[3] = tested on: experimental auto-immune encephalomyelitis (EAE) development in mice; test: Example 1: spinal cord histology (H&E inflammatory foci, anti-MBP demyelination score) in EAE mice; format: in vivo, female C57BL/6 mice; conditions: vs negative control, combination also vs each single treatment
Protocol: At the end of the study, all mice were euthanized, and spines were collected and placed in 10% buffered formalin for histological analysis.
For each spine, one H&E stained slide and one anti-MBP stained slide were prepared and analyzed. Each slide contained a section with samples from lumbar, thoracic and cervical of spinal cord (3 samples). All analysis was performed by a pathologist blinded to the experimental groups and all clinical readouts.
Inflammatory foci of approximately 20 cells were counted in each H&E stained section. When inflammatory infiltrates consisted of more than 20 cells, an estimate was made of how many foci of 20 cells were present.
Demyelination was scored in each anti-MBP (using immunohistochemistry) stained section. In anti-MBP sections, demyelination is observed as conspicuous unstained areas in white matter tracts and is associated with presence of large vacuoles. The demyelination score represents an estimate of demyelinated area for each section as follows: […]

[4] = tested on: experimental auto-immune encephalomyelitis (EAE) development in mice; conditions: Example 2; for mice died in group: 16 mice per group; for disease onset: peptide 30 μg/Alum s.c. days 4, 9, 14, 19, BG-12 100 mg/kg p.o. BID days 0 to 27; for disease onset / AUC (area under the curve) of EAE scores / MMS (mean maximal score) / end score (clinical EAE score 0-5): single agents vs negative control, combinations vs peptides only or BG-12 only
Description: Example 2: Effect of the therapeutic administration of an immunogenic peptide comprising a MOG35-55 MHCII T cell epitope linked or not to an HCPYC oxidoreductase motif in combination with dimethyl fumarate (BG-12, […]™) on experimental auto-immune encephalomyelitis (EAE) development in mice.
The study used a total of 96 female C57BL/6 mice (Taconic Biosciences, 10 weeks old on Day 0). Mice were acclimated for 14 days prior to the first injection. Mice were assigned to groups in a balanced manner to achieve similar average weight across the groups at the start of the study.
Treatment 1 was administered once on each of the days indicated in Table 3, s.c., at a volume of 0.05 mL/site, each mouse receiving injection at two sites, for a total of 0.1 mL/mouse/dosing day. IMCY-0189 or MOG35-55 peptide total dose was 30 μg per administration.
as §2, §3
Lyophilized mouse MOG35-55 peptide with the sequence […] (SEQ ID NO:205), comprising the mouse Myelin Oligodendrocyte Glycoprotein (MOG35-55) MHCII T cell epitope […] (SEQ ID NO:169), was solubilized immediately before use. Lyophilized MOG35-55 peptide was thawed at room temperature for 10 minutes, resuspended in Na Acetate buffer 50 mM NaCl 0.9% pH 5.4 and incubated at room temperature for 10 minutes. Reconstituted MOG35-55 peptide was then mixed with Imject™ Alum Adjuvant before injection. Note that the positions 35 to 55 refer to the mature protein, i.e. after cleavage of the signal peptide (AA 1-29), defined by SEQ ID NO: 208. In the full-length amino acid sequence of MOG (SEQ ID NO: 184), said peptide would be at positions 64-84.
Lyophilized IMCY-0189 was thawed at room temperature for 10 minutes, resuspended in Na Acetate buffer 50 mM NaCl 0.9% pH 5.4 and incubated at room temperature for 10 minutes. Reconstituted peptide was then mixed with Imject™ Alum Adjuvant before injection.
For Treatment 2, vehicle was 0.5% HPMC, 0.2% Tween 20, and 50 mM citrate buffer at pH 4. BG-12 (Santa Cruz Biotechnology, sc-239774) and was prepared at least every 2 weeks. At each preparation the required amount of BG-12 was weighed out into a mortar and triturated with a pestle. Vehicle was then added in small increments and mixed until the final volume was reached. The material was then vortexed and sonicated in a water bath until a homogeneous suspension was obtained. Formulated BG-12 was stored at 4° C., stirring continuously.
EAE induction, scoring and statistical analysis were performed as described in example 1.
as §4

[5] = tested on: experimental auto-immune encephalomyelitis (EAE) development in mice; test: Example 4: serum neurofilament light (NF-L) levels in EAE mice; format: in vivo, female C57BL/6 mice; conditions: Day 28 serum, vs negative control
Protocol: as §1
Serum neurofilaments levels were quantified as described in example 3.

| Compound | serum NF-L levels [1] | mice died in group [2] | disease onset [2] | AUC (area under the curve) of EAE scores [2] | MMS (mean maximal score) [2] | end score (clinical EAE score 0-5) [2] | level of inflammation (inflammatory foci in H&E stained spinal cord sections) [3] | mice died in group [4] | disease onset [4] | AUC (area under the curve) of EAE scores [4] | MMS (mean maximal score) [4] | end score (clinical EAE score 0-5) [4] | serum NF-L levels [5] | level of demyelination (anti-MBP stained sections, score 0-5) [3] |
| --- | --- | --- | --- | --- | --- | --- | --- | --- | --- | --- | --- | --- | --- | --- |
| COC(=O)/C=C/C(=O)OC [BG-12, dimethyl fumarate, reference compound] | statistically significant reduced NF-L levels | No mice died | postponed disease onset | statistically significant reduced | statistically significant reduced | reduced end score | reduced level of inflammation, although not statistically significant | No mice died | postponed disease onset | statistically significant reduced | statistically significant reduced | reduced end score | statistically significant reduced NF-L levels | – |
| HCPYCGWYRSPFSRVVHLYR [IMCY-0189] | statistically significant reduced NF-L levels | No mice died | postponed disease onset | statistically significant reduced | statistically significant reduced | reduced end score | reduced level of both inflammation and demyelination, although not statistically significant | 1 mice | postponed disease onset | statistically significant reduced | statistically significant reduced | reduced end score | statistically significant reduced NF-L levels | reduced level of both inflammation and demyelination, although not statistically significant |
